In US9963433B2, “Anticancer drugs including the chemical structures of an androgen receptor ligand and a histone deacetylase inhibitor” (Wayne State University, priority 2016, dated 2018):

Key:
[1] = test system: AR chromatin association at KLK3 ARE enhancer elements; experiment: ChIP of AR at KLK3 enhancer in C4-2 cells; conditions: compound 10 μM, R1881 1 nM or 10 nM, 2 h, FIG. 3C
Method: (3C) C4-2 cells plated in hormone-depleted medium were treated with either vehicle, R1881, or the indicated compound for 2 h. Cells were harvested and subjected to ChIP using AR antibody. Taqman probes targeting ARE enhancer elements associated with the KLK3 gene were used to quantify the immunoprecipitated chromatin.
Chromatin Immunoprecipitation (ChIP). […] The ChIP signals were measured by quantitative real time PCR analysis of the immunoprecipitated products.
As a target site for the ChIP assay, the well-established AR binding enhancer elements located 4 kb upstream of the transcription initiation site of the KLK3 gene was chosen.

[2] = test system: HDACs from Hela cell nuclear extract; assay type: biochemical; conditions: HeLa cell nuclear extract; tested at 10 μM and 25 μM; FIG. 2B
Method: (§1) FIGS. 2A-2F show measurement of intrinsic and in situ HDACi activities. […] IC50 values were calculated from nonlinear regression plots using GraphPad Prism5 software. […] Recombinant HDAC6 was incubated with each drug at the indicated concentrations. IC50 values were calculated from nonlinear regression plots using GraphPad Prism5 software.
(§2) HDAC activity assay. In vitro HDAC inhibition was measured by using the HDAC fluorimetric assay/drug discovery Kit (Enzo Life Sciences, BML-AK500) and the HDAC6 fluorometric drug discovery kit (Enzo Life Sciences, BML-AK516) following the manufacturer's protocols and instructions. IC50 values were calculated from nonlinear […] plots using GraphPad Prism5 software.
(§3) HDAC1 and HDAC2 are enriched in nuclear extracts whereas HDAC6 is a cytosolic enzyme that is the principal modulator of the acetylation status of Hsp90. […] Again, TSA served as the positive control in FIG. 2D.

human recombinant HDAC6 = target: T1, human recombinant HDAC6 (Homo sapiens, UniProt Q9UBN7); experiment: HDAC6 fluorometric assay, recombinant enzyme; assay type: biochemical; conditions: tested at 10 μM and 25 μM; FIG. 2D
T1 construct: purchased Enzo Life Sciences BML-AK516
T1 sequence (Q9UBN7 1-1215): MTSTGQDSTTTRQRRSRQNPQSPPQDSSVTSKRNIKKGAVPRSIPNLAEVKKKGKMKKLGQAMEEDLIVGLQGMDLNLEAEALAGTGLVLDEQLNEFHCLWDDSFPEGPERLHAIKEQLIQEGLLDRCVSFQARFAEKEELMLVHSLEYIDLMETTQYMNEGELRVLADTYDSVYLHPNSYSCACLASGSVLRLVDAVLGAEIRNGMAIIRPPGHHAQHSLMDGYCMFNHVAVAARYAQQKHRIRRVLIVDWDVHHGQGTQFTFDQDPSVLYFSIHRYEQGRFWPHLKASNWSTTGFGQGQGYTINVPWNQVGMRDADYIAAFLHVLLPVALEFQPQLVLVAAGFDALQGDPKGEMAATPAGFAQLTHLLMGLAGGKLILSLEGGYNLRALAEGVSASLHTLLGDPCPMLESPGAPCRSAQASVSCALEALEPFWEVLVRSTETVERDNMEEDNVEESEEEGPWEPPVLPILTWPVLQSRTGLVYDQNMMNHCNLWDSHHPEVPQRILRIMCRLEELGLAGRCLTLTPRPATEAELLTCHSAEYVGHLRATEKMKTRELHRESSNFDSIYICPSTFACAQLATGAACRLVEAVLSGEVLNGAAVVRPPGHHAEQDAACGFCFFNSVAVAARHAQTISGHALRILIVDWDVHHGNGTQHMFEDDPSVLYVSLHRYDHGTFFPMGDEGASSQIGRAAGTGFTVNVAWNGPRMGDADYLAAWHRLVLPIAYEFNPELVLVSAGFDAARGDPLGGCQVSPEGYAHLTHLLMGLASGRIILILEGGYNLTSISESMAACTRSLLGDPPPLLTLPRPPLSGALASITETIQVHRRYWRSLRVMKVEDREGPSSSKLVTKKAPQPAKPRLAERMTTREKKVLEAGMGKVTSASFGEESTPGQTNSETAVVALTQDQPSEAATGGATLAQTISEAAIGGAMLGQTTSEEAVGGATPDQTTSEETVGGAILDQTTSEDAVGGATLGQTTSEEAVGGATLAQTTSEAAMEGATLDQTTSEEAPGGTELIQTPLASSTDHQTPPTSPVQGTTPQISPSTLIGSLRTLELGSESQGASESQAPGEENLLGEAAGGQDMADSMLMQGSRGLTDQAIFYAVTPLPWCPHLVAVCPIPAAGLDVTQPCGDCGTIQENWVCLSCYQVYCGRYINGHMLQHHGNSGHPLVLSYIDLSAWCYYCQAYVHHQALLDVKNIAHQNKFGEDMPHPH
Method: as §1, §2, §3

[3] = test system: KLK3 mRNA (AR target gene) in C4-2 cells; experiment: Inhibition of R1881 activation of KLK3 mRNA in C4-2 cells; assay type: cell-based; conditions: hormone depleted 96 h, R1881 1 nM, compound 1-10 μM, 48 h, FIG. 3A
Method: (§4) Cell Culture and Reagents. LNCaP and 22Rv1 cell lines were from American Type Culture Collection (Manassas, Va.). C4-2 cells were kindly provided by Dr. Edwin Sanchez (University of Toledo). […] R1881 was kindly provided by Dr. Stephan Patrick (Karmanos Cancer Institute). All experiments were conducted using phenol-red free growth media.
(§5) RNA isolation, Reverse Transcription, and Real Time PCR. Total RNA was isolated from cells using the RNeasy Mini Kit (Qiagen). Reverse transcription PCR was then performed using 500 ng of total RNA with random primers and using the high-capacity complementary DNA Archive kit (Applied Biosystems). The complementary DNA from this reaction was measured using quantitative real time PCR using the StepONE Plus Real Time PCR system (Life Technologies Corporation, Carlsbad, Calif.). All reactions were performed in triplicate and normalized to glyceraldehyde-3-phosphate-dehydrogenase values in the same samples.

[4] = test system: TMPRSS2 mRNA (AR target gene) in C4-2 cells; experiment: Inhibition of R1881 activation of TMPRSS2 mRNA in C4-2 cells; assay type: cell-based; conditions: hormone depleted 96 h, R1881 1 nM, compound 1-10 μM, 48 h, FIG. 3B
Method: as §4, §5

## C[C@]1(O)CC[C@H]2[C@@H]3CCC4=CC(=O)CCC4=C3C=C[C@@]21C [androgen, R1881]
[1]
  chromatin association of AR (ChIP signal): strongly stimulated chromatin association of AR

## COC(=O)CCCCCCNC(=O)c1ccc(N2C(=S)N(c3ccc(C#N)c(C(F)(F)F)c3)C(=O)C2(C)C)cc1F [Compound 3-52, Methyl-7-(4-(3-(4-cyano-3-(trifluoromethyl)phenyl)-5,5-dimethyl-4-oxo-2-thioxoimidazolidin-1-yl)-2-fluorobenzamido)heptanoate]
[2]
  inhibition of nuclear HDAC activity: did not inhibit nuclear HDAC activity even up to a concentration of 25 μM
Human recombinant HDAC6
  inhibitory activity against HDAC6: did not show significant inhibitory activity
[3]
  inhibition of activation of KLK3 by R1881: comparable to Enz
[4]
  inhibition of activation of TMPRSS2 by R1881: comparable to Enz
